Experimental data from US20220296535A1, “Antibacterial Dosage Regime Using Cannabinoids” (Botanix Pharmaceuticals Limited, priority 2019, published 2022).
Values after ≈ are worked out from the molar mass of the structure shown. Values joined by “and” are separate entries in the source; they are usually repeats but may differ in a detail not shown here. Identical values can stand only once. Counter-ions that a name gives are not always drawn. Like-named read-outs stand apart in the source and are kept apart here.

How the values were obtained:
[1] = system: Staphylococcus aureus MRSA ATCC 43300 biofilm; test: Biofilm minimum inhibitory concentration (Biofilm MIC), crystal violet OD590; type: cell-based; conditions: two technical replicates, ≥70% inhibition OD590; for Biofilm MIC (TSB + 5% Gluc) 07/112/18: first biological replicate; for Biofilm MIC (TSB + 5% Gluc) 14/112/18: second biological replicate
Description: (§1) The collaborator supplied sample as dry material. A stock solution at 10 mg/mL in neat DMSO (11.2 mg in 1.12 mL of DMSO) was prepared. The highest concentration tested in the assay was 128 μg/mL and 2% DMSO as a final concentration using 1/20 dilution to achieve these concentrations.
Bacteria (Staphylococcus aureus, ATCC 43300; MRSA) was cultured on Tryptic Soy Broth (TSB, BD, Cat. No. 211825) at 37° C. overnight, then it was diluted 1:100 in fresh TSB supplemented with 5% glucose. 100 μL were added across the 96-well of polystyrene (PS) (Corning; Cat. No. 3370) plate, leaving row H as media Control. Plates were incubated at 37° C. for 48 h to generate the biofilm. The plates were prepared in duplicate.
The antibiotic controls and CBD were serially diluted in TSB with 5% glucose two-fold across the wells of polystyrene (PS) 96-well plates (Corning; Cat. No. 3370), plated in duplicate. All plates had flat bottom wells and were covered with low-evaporation lids.
48 h after incubation, bacteria plates were carefully washed three times with 200 μL/well of saline solution (0.9% NaCl, Baxter Healthcare; Cat. No. AHF7124) using manual pipette to remove the planktonic cells but leave the biofilm adhered to the plate wells. Then, 100 μL of diluted controls and CBD were transferred into the washed plates containing the biofilm. Then, these plates were incubated at 37° C. for 24 h.
Next day, plates were washed three times with saline solution, then fixed with 100 μL/well of 99% methanol for 15 minutes. Once the biofilm was fixed, 100 μL/well 0.1% Crystal Violet Stain (Sigma; Cat No. C0775-25G) was added for 20 minutes and used as indicator of biofilm formation, followed by three times washing and dry well. To dissolve the crystal violet, 150 μL/well of methanol was added to allow for biofilm MIC analysis.
The biofilm formation was determined by optical density read at 590 nm (OD590). The percentage of biofilm formation was evaluated comparing the average, standard deviation and percentage of confidence of the media control (Row H) against the rest of the plate.
Analysis was performed using Microsoft Excel.

[2] = system: Staphylococcus aureus ATCC 43300; test: Broth MIC (Example 1); type: cell-based; conditions: for MIC: Staphylococcus aureus
Description: as §1

[3] = system: S. aureus MRSA (106 strains); test: MIC50/MIC90 micro-broth dilution, MRSA strains; type: cell-based, Staphylococcus aureus
[4] = system: S. aureus MSSA (26 strains); test: MIC50/MIC90 micro-broth dilution, MSSA strains
[5] = system: 132 strains of Staphylococcus aureus (106 MRSA and 26 MSSA strains); test: MIC50/MIC90 micro-broth dilution, all strains
S. aureus ATCC 43300 = test: Anaerobic MIC micro-broth dilution; type: cell-based, Staphylococcus aureus
[6] = system: A. acidipropionici ATCC 25562; test: Anaerobic MIC micro-broth dilution; type: cell-based, Acidipropionibacterium acidipropionici
C. granulosum ATCC 25564 = test: Anaerobic MIC micro-broth dilution; type: cell-based, Cutibacterium granulosum; conditions: Cutibacterium granulosum, ATCC25564, 48 h
[7] = system: high-level mupirocin-resistant isolate 329; test: MIC microtiter broth dilution (Example 9); type: cell-based; conditions: Staphylococcus aureus; MRSA strain 329
Description: (§2) Strains used: ATCC 29213 (standard control), ATCC 43300, low-level mupirocin-resistant isolate 815, high-level mupirocin-resistant isolage 329, high-level mupirocin-resistant isolate 993.
(§3) All strains prepared as described in “Bacterial Preparation” section above with the following differences: inocula were prepared in Müller-Hinton broth (MHB) rather than RPMI, and were diluted 1:10,000 following wash for an inoculum concentration of ˜5×10^4 CFU/mL.
(§4) Using a multichannel pipet, 100 μL of MHB was added to each of the wells of the 96-well plates (round bottom/U-bottom). Stock solutions of antibiotic were prepared at 2× the highest assay concentration (mupirocin at 4096 μg/mL and CBD at 100 μg/mL). 100 μL of this broth was added to each of the broth-containing wells in column 1 of the plate, and mixed by pipetting the full volume 6-7 times, for a final concentration of 2048 μg/mL mupirocin or 50 μg/mL CBD. […]
(§5) 5 μL of each inoculum was added to the appropriate wells (various wells were left without inoculation and used to correct the absorbance of the CBD-containing wells and as negative controls). […] Plate was read by a plate reader at 600 nm.
(§6) Inhibition was determined to have occurred in the first well with a difference in OD600 of <0.05 from the uninfected wells with the same concentration of antimicrobial, provided inhibition growth continued through all higher concentrations. […]

[8] = system: high-level mupirocin-resistant isolate 993; test: MIC microtiter broth dilution (Example 9); type: cell-based; conditions: Staphylococcus aureus; MRSA strain 993
Description: as §2, §3, §4, §5, §6

P. acnes ATCC 6919 = test: Anaerobic MIC micro-broth dilution; type: cell-based, Cutibacterium acnes (formerly Propionibacterium acnes)
[9] = ATCC43300, read-out: Broth MIC, CAMHB
[10] = ATCC43300, read-out: Broth MIC, TSB + 5% Glucose
[11] = S. aureus ATCC 43300, anaerobic chamber, BHI, 48 h
[12] = Acidipropionibacterium acidipropionici, ATCC25562, 48 h
[13] = Cutibacterium acnes, ATCC6919, 48 h
[14] = A. acidipropionici ATCC 25562, anaerobic chamber, BHI, 48 h

| Structure (SMILES) | Biofilm MIC (TSB + 5% Gluc) 07/112/18 [1] | Biofilm MIC (TSB + 5% Gluc) 14/112/18 [1] | MIC [2, 9] [µg/mL] | MIC [2, 10] [µg/mL] | MIC50 ([3]; Staphylococcus aureus, MRSA) [µg/mL] | MIC90 ([3]; Staphylococcus aureus, MRSA) [µg/mL] | MIC50 ([4]; Staphylococcus aureus, MSSA) [µg/mL] | MIC90 ([4]; Staphylococcus aureus, MSSA) [µg/mL] | MIC range ([5]; S. aureus spp. ALL) [µg/mL] | MIC50 ([5]; Staphylococcus aureus) [µg/mL] | MIC90 ([5]; Staphylococcus aureus) [µg/mL] | MIC (C. granulosum ATCC 25564) [µg/mL] | other results |
| --- | --- | --- | --- | --- | --- | --- | --- | --- | --- | --- | --- | --- | --- |
| COc1cc(Cc2cnc(N)nc2N)cc(OC)c1OC [Trimethoprim] | 8 µg/mL | 16 µg/mL and >64 µg/mL | 1 (≈ 3.44 µM) | 4 |  |  |  |  |  |  |  |  |  |
| CCCCCCCCCC(=O)N[C@@H](Cc1c[nH]c2ccccc12)C(=O)N[C@H](CC(N)=O)C(=O)N[C@@H](CC(=O)O)C(=O)N[C@@H]1C(=O)NCC(=O)N[C@@H](CCCN)C(=O)N[C@@H](CC(=O)O)C(=O)N[C@H](C)C(=O)N[C@@H](CC(=O)O)C(=O)NCC(=O)N[C@H](CO)C(=O)N[C@@H]([C@H](C)CC(=O)O)C(=O)N[C@@H](CC(=O)c2ccccc2N)C(=O)O[C@@H]1C [Daptomycin, reference compound] | 32 µg/mL and 16 µg/mL | 16 µg/mL |  | 32 | 2 (≈ 1.23 µM) | 4 (≈ 2.47 µM) | 2 (≈ 1.23 µM) | 2 (≈ 1.23 µM) | 0.5 to 16 | 2 (≈ 1.23 µM) | 4 (≈ 2.47 µM) |  |  |
| Cc1onc(-c2ccccc2)c1C(=O)N[C@@H]1C(=O)N2[C@@H]1SC(C)(C)[C@@H]2C(=O)O [Oxacillin sodium salt hydrate] |  |  |  |  |  |  |  |  |  |  |  |  | MIC (S. aureus ATCC 43300; [11]): 64/16/8; MIC [6, 12]: 2 µg/mL |
| C/C(=C\C(=O)OCCCCCCCCC(=O)O)C[C@@H]1OC[C@H](C[C@@H]2O[C@H]2[C@@H](C)[C@H](C)O)[C@@H](O)[C@H]1O [Mupirocin] | 0.25 µg/mL and 0.125 µg/mL | 0.25 µg/mL | 0.25 (≈ 0.499 µM) | 0.25 | 0.5 (≈ 0.999 µM) | 0.5 (≈ 0.999 µM) | 0.5 (≈ 0.999 µM) | 0.5 (≈ 0.999 µM) | 0.125 to 64 | 0.5 (≈ 0.999 µM) | 0.5 (≈ 0.999 µM) | > 32 | MIC [6, 12]: > 32 µg/mL; MIC [7]: 256 to 2050 µg/mL (≈ 511 to 4090 µM); MIC [8]: 256 to 2050 µg/mL (≈ 511 to 4090 µM); MIC (P. acnes ATCC 6919; [13]): > 32 µg/mL |
| CCC[C@@H]1C[C@@H](C(=O)N[C@@H]([C@H]2O[C@H](SC)[C@H](O)[C@@H](O)[C@H]2O)[C@H](C)Cl)N(C)C1.Cl.O [Clindamycin, Clindamycin hydrochloride monohydrate] | >64 µg/mL | >64 µg/mL |  |  |  |  |  |  | 0.03 to 64 |  |  |  | MIC (S. aureus ATCC 43300; [11]): >32 µg/mL; MIC [6, 14]: 0.125 µg/mL; MIC50 ([3]; S. aureus MRSA): 0.125 µg/mL; MIC90 ([3]; S. aureus MRSA): 64 µg/mL; MIC (P. acnes ATCC 6919; P. acnes ATCC 6919, anaerobic chamber, BHI, 48 h): 0.125 µg/mL; MIC50 ([4]; S. aureus MSSA): 0.125 µg/mL; MIC90 ([4]; S. aureus MSSA): 0.1875 µg/mL; Broth MIC ([2]; CAMHB): >64 µg/mL; Broth MIC ([2]; TSB + 5% Glucose): >64 µg/mL; MIC50 ([5]; S. aureus spp. ALL): 0.125 µg/mL; MIC90 ([5]; S. aureus spp. ALL): 64 µg/mL |
| CC[C@H]1OC(=O)[C@H](C)[C@@H](O[C@H]2C[C@@](C)(OC)[C@@H](O)[C@H](C)O2)[C@H](C)[C@@H](O[C@@H]2O[C@H](C)C[C@H](N(C)C)[C@H]2O)[C@](C)(O)C[C@@H](C)C(=O)[C@H](C)[C@@H](O)[C@]1(C)O [Erythromycin] |  |  |  |  |  |  |  |  |  |  |  | 0.125 (≈ 0.17 µM) | MIC (S. aureus ATCC 43300; Staphylococcus aureus, ATCC43300, 48 h): > 32 µg/mL; MIC [6, 14]: 4/2 |
| CN[C@H](CC(C)C)C(=O)N[C@H]1C(=O)N[C@@H](CC(N)=O)C(=O)N[C@H]2C(=O)N[C@H]3C(=O)N[C@H](C(=O)N[C@H](C(=O)O)c4cc(O)cc(O)c4-c4cc3ccc4O)[C@H](O)c3ccc(c(Cl)c3)Oc3cc2cc(c3O[C@@H]2O[C@H](CO)[C@@H](O)[C@H](O)[C@H]2O[C@H]2C[C@](C)(N)[C@H](O)[C@H](C)O2)Oc2ccc(cc2Cl)[C@H]1O [Vancomycin] | 4 µg/mL | 4 µg/mL | 0.5 (≈ 0.345 µM) | 1 | 1 (≈ 0.69 µM) | 2 (≈ 1.38 µM) | 1 (≈ 0.69 µM) | 1 (≈ 0.69 µM) | 0.5 to 64 | 1 (≈ 0.69 µM) | 2 (≈ 1.38 µM) | 0.25 (≈ 0.173 µM) | MIC (P. acnes ATCC 6919; [13]): 0.25 µg/mL (≈ 0.173 µM) |
